For test [1], the system named is primary human mesenchymal stem cells (hMSCs). Kind of test: Induction of chondrogenesis in primary human mesenchymal stem cells (hMSCs), nodule imaging with Rhodamine B / Nile Red. It counts as cell-based. The conditions noted are these: for Emax: hMSCs chondrogenesis, TGF-β3 (10 ng/mL) as positive control, read-out: Max. Activity as % TGF-β3 activity; for EC50: hMSCs, concentration required to induce 50% levels of chondrogenesis vs TGF-β3 positive control, read-out: Conc (nM) of 50% TGF-β3 activity. How it is done: Representative compounds were screened using primary human mesenchymal stem cells (hMSCs) to determine their ability to induce chondrogenesis (process by which cartilage is developed).
Human Mesenchymal Stem Cell Culture: Primary human mesenchymal stem cells (hMSCs) were purchased from Lonza (Walkersville, Md.) and expanded in Mesenchymal Stem Cell Growth Media (Lonza). Cells between passage 3 and 6 were used for the experiments.
Compound Screening: Each compound was dissolved in DMSO as a 10 mM stock and used to prepare compound source plates. For the 96 well assay, serial dilution (1:3, 6-point dose-response curves from 2700 nM to 10 nM) and compound transfer was performed using the ECHO 550 (Labcyte, Sunnyvale, Calif.) into 96-well clear bottom assay plates (Greiner Bio-One) with appropriate DMSO backfill for a final DMSO concentration of 0.03%. hMSCs were plated at 20,000 cells/well in 250 μL/well Incomplete Chondrogenic Induction Medium (Lonza; DMEM, dexamethasone, ascorbate, insulin-transferrin-selenium [ITS supplement], gentamycin-amphotericin [GA-1000], sodium pyruvate, proline and L-glutamine). TGF-β3 (10 ng/mL) was used as a positive control for differentiation while negative control wells were treated with 75 nL DMSO for normalization and calculating EC50 values. For the 384 well assay, serial dilution (1:3, 8-point dose-response curves from 5000 nM to 2.2 nM) and compound transfer was performed using the ECHO 550 (Labcyte, Sunnyvale, Calif.) into 384-well clear bottom assay plates (Greiner Bio-One) with appropriate DMSO backfill for a final DMSO concentration of 0.03%. hMSCs were plated at 8,000 cells/well in 80 μL/well Incomplete Chondrogenic Induction Medium (Lonza; DMEM, dexamethasone, ascorbate, insulin-transferrin-selenium [ITS supplement], gentamycin-amphotericin [GA-1000], sodium pyruvate, proline and L-glutamine). TGF-β3 (10 ng/mL) was used as a positive control for differentiation while negative control wells were treated with 25 nL DMSO for normalization and calculating EC50 values. Cells were incubated at 37° C. and 5% CO2 for 6 days. To image chondrogenic nodules, the cells were fixed using 4% formaldehyde (Electron Microscopy Sciences), and stained with 2 μg/mL Rhodamine B (Sigma-Aldrich) and 20 μM Nile Red (Sigma-Aldrich) [Johnson K., et.al, A Stem Cell-Based Approach to Cartilage Repair, Science, (2012), 336(6082). 717-721]. The nodules imaged (25 images per well for 96 well plates and 9 images per well for 384 well plates at 10× magnification) by excitation at 531 nm and emission at 625 nm and quantified using the CellInsight CX5 (Thermo Scientific). Area of nodules in each well was normalized to the average of 3 DMSO treated wells on the same plate using Excel (Microsoft Inc.). The normalized averages (fold change over DMSO) of 2 or 3 replicate wells for each compound concentration were calculated. Due to solubility limitations of some of the compounds, curve fitting was incomplete leading to inaccurate EC50 determinations.
Using TGF-β3 as a positive control, the concentration of representative compounds required to induce 50% levels of chondrogenesis is reported. In addition, the maximum activity of each compound and the respective dose that each compound reached maximum chondrogenesis activity is reported.

The subject of test [2] is LL29 cells (primary human fibroblasts derived from IPF patients) treated with TGF-β1, α-smooth muscle actin. Put plainly: Inhibition of the fibrotic process: αSMA staining in TGF-β1 treated primary human fibroblasts from IPF patients (LL29 cells). It counts as cell-based. The conditions noted are these: Fibroblast, 96 h; for EC50: LL29 cells treated with TGF-β1 (20 ng/mL), 4 days; for inhibition at 10 µM: LL29 cells treated with TGF-β1, 4 days, read-out: percent inhibition in brackets (given for EC50 >10 μM).

Molecules are shown by their SMILES.

As usually defined, the inhibition is the change of the read-out against control, counted positive when it falls.

For the compound `Fc1cccc(-c2cncc3[nH]c(-c4n[nH]c5ccc(-c6ccncc6)nc45)nc23)c1` [Compound 18, 3-(7-(3-Fluorophenyl)-3H-imidazo[4,5-c]pyridin-2-yl)-5-(pyridin-4-yl)-1H-pyrazolo[4,3-b]pyridine], in test [1], the Emax was determined as 51% and the EC50 was found to be 7 nM. Besides, in test [2], the EC50 is > 10000 nM and the inhibition at 10 µM was 0%.

On to `O=C(Nc1cncc(-c2ccc3[nH]nc(-c4nc5c(-c6ccc(F)cc6)cncc5[nH]4)c3n2)c1)C1CCC1` [Compound 49, N-(5-(3-(7-(4-Fluorophenyl)-3H-imidazo[4,5-c]pyridin-2-yl)-1H-pyrazolo[4,3-b]pyridin-5-yl)pyridin-3-yl)cyclobutanecarboxamide], for which the Emax in test [1] is 33%. Moreover, the EC50 in test [2] turned out to be 3230 nM.

For the compound `Fc1ccc(-c2cncc3[nH]c(-c4n[nH]c5ccc(-c6cncnc6)nc45)nc23)cc1` [Compound 55, 3-(7-(4-Fluorophenyl)-3H-imidazo[4,5-c]pyridin-2-yl)-5-(pyrimidin-5-yl)-1H-pyrazolo[4,3-b]pyridine], in test [1], the Emax came out at 125% and the EC50 was determined as 100 nM. In test [2], the EC50 was > 10000 nM and the inhibition at 10 µM turned out to be 21.4%.

For the compound `Nc1cncc(-c2ccc3[nH]nc(-c4nc5c(-c6ccccc6F)cncc5[nH]4)c3n2)c1` [Compound 59, 5-(3-(7-(2-Fluorophenyl)-3H-imidazo[4,5-c]pyridin-2-yl)-1H-pyrazolo[4,3-b]pyridin-5-yl)pyridin-3-amine], in test [1], the Emax was found to be 98% and the EC50 was determined as 10 nM. In test [2], the EC50 worked out at 3400 nM.

Take `CC(C)C(=O)Nc1cncc(-c2ccc3[nH]nc(-c4nc5c(-c6ccccc6F)cncc5[nH]4)c3n2)c1` [Compound 65, N-(5-(3-(7-(2-fluorophenyl)-3H-imidazo[4,5-c]pyridin-2-yl)-1H-pyrazolo[4,3-b]pyridin-5-yl)pyridin-3-yl)isobutyramide]: in test [1], the Emax is 181% and the EC50 worked out at 10 nM. Also, in test [2], the EC50 is > 10000 nM and the inhibition at 10 µM turned out to be 1.9%.

On to `c1cncc(-c2ccc3[nH]nc(-c4nc5c(-c6cccnc6)cncc5[nH]4)c3n2)c1` [Compound 88, 5-(Pyridin-3-yl)-3-(7-(pyridin-3-yl)-3H-imidazo[4,5-c]pyridin-2-yl)-1H-pyrazolo[4,3-b]pyridine], for which the Emax in test [1] is 84%. For the same compound, the EC50 in test [1] is 30 nM; in test [2], 4960 nM.

Turning to `CC(C)C(=O)Nc1cncc(-c2ccc3[nH]nc(-c4nc5c(-c6cccnc6)cncc5[nH]4)c3n2)c1` [Compound 93, N-(5-(3-(7-(Pyridin-3-yl)-3H-imidazo[4,5-c]pyridin-2-yl)-1H-pyrazolo[4,3-b]pyridin-5-yl)pyridin-3-yl)isobutyramide], in test [1], the Emax turned out to be 336% and the EC50 is 1670 nM. In test [2], the EC50 was > 10000 nM and the inhibition at 10 µM stood at 12.2%.

Regarding `Cc1ccncc1-c1ccc2[nH]nc(-c3nc4c(-c5ccncc5)cncc4[nH]3)c2n1` [Compound 117, 5-(4-Methylpyridin-3-yl)-3-(7-(pyridin-4-yl)-3H-imidazo[4,5-c]pyridin-2-yl)-1H-pyrazolo[4,3-b]pyridine], in test [1], the Emax is 68% and the EC50 was 30 nM. Also, in test [2], the EC50 is > 10000 nM and the inhibition at 10 µM was 0%.

Turning to `CCCC(=O)Nc1cncc(-c2ccc3[nH]nc(-c4nc5c(-c6ccncc6)cncc5[nH]4)c3n2)c1` [Compound 129, N-(5-(3-(7-(Pyridin-4-yl)-3H-imidazo[4,5-c]pyridin-2-yl)-1H-pyrazolo[4,3-b]pyridin-5-yl)pyridin-3-yl)butyramide], in test [1], the Emax is 31%. For the same compound, in test [2], the EC50 was > 10000 nM and the inhibition at 10 µM amounted to 0%.

On to `CCNCc1cncc(-c2ccc3[nH]nc(-c4nc5c(-c6ccccn6)cncc5[nH]4)c3n2)c1` [Compound 146, N-((5-(3-(7-(Pyridin-2-yl)-3H-imidazo[4,5-c]pyridin-2-yl)-1H-pyrazolo[4,3-b]pyridin-5-yl)pyridin-3-yl)methyl)ethanamine], for which the Emax in test [1] turned out to be 50%. The EC50 in test [2] stood at 1860 nM.

Turning to `CCCCC(=O)Nc1cncc(-c2ccc3[nH]nc(-c4nc5c(-c6ccccn6)cncc5[nH]4)c3n2)c1` [Compound 159, N-(5-(3-(7-(Pyridin-2-yl)-3H-imidazo[4,5-c]pyridin-2-yl)-1H-pyrazolo[4,3-b]pyridin-5-yl)pyridin-3-yl)pentanamide], in test [1], the Emax was determined as 86% and the EC50 amounted to 30 nM. For the same compound, in test [2], the EC50 is > 10000 nM and the inhibition at 10 µM was determined as 0.4%.

On to `CCC(=O)Nc1cncc(-c2ccc3[nH]nc(-c4nc5c(N6CCCCC6)cncc5[nH]4)c3n2)c1` [Compound 169, N-(5-(3-(7-(Piperidin-1-yl)-3H-imidazo[4,5-c]pyridin-2-yl)-1H-pyrazolo[4,3-b]pyridin-5-yl)pyridin-3-yl)propionamide], for which, in test [1], the Emax turned out to be 70% and the EC50 was 900 nM. Besides, in test [2], the EC50 was > 10000 nM and the inhibition at 10 µM was found to be 3%.

With `CN(C)Cc1cncc(-c2ccc3[nH]nc(-c4nc5c(N6CCCCC6)cncc5[nH]4)c3n2)c1` [Compound 181, N,N-Dimethyl-1-(5-(3-(7-(piperidin-1-yl)-3H-imidazo[4,5-c]pyridin-2-yl)-1H-pyrazolo[4,3-b]pyridin-5-yl)pyridin-3-yl)methanamine], the Emax in test [1] is 84%. The EC50 in test [1] came to 900 nM; in test [2], 8030 nM.

For `Cc1cn(-c2cncc3[nH]c(-c4n[nH]c5ccc(-c6cncc(NC(=O)CC(C)C)c6)nc45)nc23)cn1` [Compound 198, 3-Methyl-N-(5-(3-(7-(4-methyl-1H-imidazol-1-yl)-3H-imidazo[4,5-c]pyridin-2-yl)-1H-pyrazolo[4,3-b]pyridin-5-yl)pyridin-3-yl)butanamide], in test [1], the Emax was 59% and the EC50 was determined as 100 nM. In test [2], the EC50 is > 10000 nM and the inhibition at 10 µM turned out to be 0%.

Consider `Cc1cn(-c2cncc3[nH]c(-c4n[nH]c5ccc(-c6cncc(NC(=O)C(C)(C)C)c6)nc45)nc23)cn1` [Compound 204, N-(5-(3-(7-(4-methyl-1H-imidazol-1-yl)-3H-imidazo[4,5-c]pyridin-2-yl)-1H-pyrazolo[4,3-b]pyridin-5-yl)pyridin-3-yl)pivalamide], for which, in test [1], the Emax was found to be 150% and the EC50 worked out at 100 nM. Moreover, in test [2], the EC50 was > 10000 nM and the inhibition at 10 µM was 0%.

For the compound `Cc1cn(-c2cncc3[nH]c(-c4n[nH]c5ccc(-c6cncc(CN7CCCC7)c6)nc45)nc23)cn1` [Compound 210, 3-(7-(4-Methyl-1H-imidazol-1-yl)-3H-imidazo[4,5-c]pyridin-2-yl)-5-(5-(pyrrolidin-1-ylmethyl)pyridin-3-yl)-1H-pyrazolo[4,3-b]pyridine], in test [1], the Emax is 65% and the EC50 is 2700 nM. Besides, in test [2], the EC50 was > 10000 nM and the inhibition at 10 µM was found to be 0%.

Turning to `Cc1cn(-c2cncc3[nH]c(-c4n[nH]c5ccc(-c6cncc(NC(=O)C7CCC7)c6)nc45)nc23)cn1` [Compound 217, N-(5-(3-(7-(4-Methyl-1H-imidazol-1-yl)-3H-imidazo[4,5-c]pyridin-2-yl)-1H-pyrazolo[4,3-b]pyridin-5-yl)pyridin-3-yl)cyclobutanecarboxamide], the Emax in test [1] worked out at 47%. In test [2], the EC50 was > 10000 nM and the inhibition at 10 µM came out at 18.8%.

The record behind these values is patent US10188634B2, “3-(3H-imidazo[4,5-C]pyridin-2-yl)-1 H-pyrazolo[4,3-B]pyridines and therapeutic uses thereof” (Samumed, LLC, priority 2015, dated 2019).
